Test results from US20030185792A1, “Morphogen analogs of bone morphogenic proteins” (Curis, Inc., priority 1996, published 2003).
“Also recorded” adds a separate entry of the source.

T1: ECD of DAF-4 (Caenorhabditis elegans, UniProt P50488)
T1 construct: highly purified ECD of DAF-4 as type II receptor
T1 sequence (P50488 48-253 limits assumed): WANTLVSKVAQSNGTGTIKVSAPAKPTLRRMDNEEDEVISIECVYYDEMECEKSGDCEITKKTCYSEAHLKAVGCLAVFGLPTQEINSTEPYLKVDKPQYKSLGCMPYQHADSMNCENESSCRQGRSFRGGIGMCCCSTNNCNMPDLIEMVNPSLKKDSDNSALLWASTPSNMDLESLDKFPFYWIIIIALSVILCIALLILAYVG


How the values were obtained:
[1] = tested on: ROS cells; assay: ROS cell based alkaline phosphatase bioassay; design: species or system rat; settings: for % increase in OP-1 response relative to the absence of peptide: OP-1 1.33 nM
Procedure: In a first series of experiments, increasing concentrations of peptides F2-2 (FIG. 9A), F2-3 (FIG. 9B), Hn-2 (FIG. 9C) and Hc-2 (FIG. 9D) were added to ROS cells either alone (open bars) or in combination with 40 ng/ml soluble OP-1 (filled bars) and their effect on alkaline phosphatase activity measured. Soluble OP-1 is the form of OP-1 in which the pro-domain is still attached to the mature portion of OP-1 (see WO 94/03600). A basal alkaline phosphatase activity is shown by the line and represents the alkaline phosphatase activity of cells incubated in the absence of both soluble OP-1 and peptide.
Assay of peptides: The receptor-binding activities of OP-1 synthetic peptides were determined by a radio-ligand receptor assay using ^125I-labeled OP-1 as ligand, and an OP-1 receptor-enriched plasma membrane fraction of ROS cells. The assay is based on competition between radiolabeled OP-1 and unlabeled OP-1 or peptide for binding to membrane-bound receptor. A well characterized ROS cell based in vitro bio-assay was used to examine the effects of OP-1 peptides on basal as well as OP-1 induced cellular alkaline phosphatase activity.
i. ROS Cell Based Alkaline Phosphatase Assay: OP-1 synthetic peptides that bind OP-1 receptors are further analyzed by in vitro bioassay. This allows defining the role of OP-1 peptides at the receptor-binding site. Some of the OP-1 peptides that effectively interact with receptors could inhibit OP-1 induced target cell responsiveness, thereby acting as functional antagonists. Alternatively, they may mimic OP-1 functions inducing alkaline phosphatase activity in ROS cells. Creative BioMolecules has developed and fully validated ROS cell in vitro assay for OP-1. An assay procedure as described earlier is essentially followed to determine the biological activities of OP-1 peptides. In a typical experiment, rat Osteosarcoma (17/2.8) cells are plated in 96 well plates (3.0×10^4 cells/well) and incubated overnight at 37° C. in 5-6% CO2 incubator. Next day, the plates are examined to make sure that cells are healthy & confluent. Cells are treated with increasing concentrations of OP-1 standard (1-10,000 ng/ml) or OP-1 synthetic peptides (0.02-200 μM) alone or with OP-1 standard prepared in medium containing 1% FBS and incubated for 2 days at 37° C. in 5-6% CO2 incubator. The cellular content of alkaline phosphatase activity is determined by the method of Reddi and Huggins. Enzyme estimations are routinely carried out in 96 well plates. Following removal of culture medium, cells are washed with pre-warmed PBS (150 μl) and further incubated in 100 ul of pre-warmed 1% Triton X-100 for 30 minutes at 37 C. Plates are centrifuged for 10 minutes at full speed, and recovered samples (each 15 μl) are assayed for enzyme activity by adding 90 ul p-nitrophenyl phosphate (Sigma) as a substrate in 0.05 M glycine-NaOH buffer, pH 9.3 and incubating for 20 minutes at 37° C. The reaction is stopped by adding 75 μl of 0.2 N NaOH/well and absorbance at 405/490 nm is measured on a Dynatech MR 700 plate reader. Results are expressed as concentration of peptide inhibitor (with antagonist activity) required to give 50% inhibition of maximum response to OP-1 standard. On the other hand, the activities of peptides that stimulate cell responsiveness (with agonist activity) are expressed relative to OP-1 standard. FIG. 23 illustrates the dose-related effects of OP-1 preparations on stimulation of alkaline phosphatase activity as determined in ROS cell based in vitro assay.

[2] = molecular target: T1, ECD of DAF-4; assay: Type II receptor-based rapid solid phase assay; format: binding; settings: for inhibition of 125I-labeled OP-1 binding to the ECD of DAF-4: excess unlabeled competitor, FIG. 20
Procedure: iii. Type H Receptor-based rapid solid phase assay: OP-1 binding activity, and that of various synthetic peptides, may be determined by a rapid solid-phase assay using 125I-labeled OP-1 as ligand and highly purified ECD of DAF-4 as type II receptor. In a typical assay, ˜1 μg of ECD of DAF-4 receptor (R) is dissolved in 20 μl of 50 mM PBSA, pH 7.4 and immobilized on PVDF membranes (Immobilon-P) by using a slot-blot apparatus (VacuSlot-VS). A similarly immobilized polyclonal anti-OP-1 antibody (diluted Ab) has served as positive control, while bovine serum albumin (globulin free) and unrelated receptor ECD have served as negative controls in this assay. The receptor-containing membranes are incubated in 50 mM HEPES buffer, pH 7.4 containing 3% bovine serum albumin (BSA) for 14 h, in cold (4° C.), to block excess protein binding sites on the membrane. The blocking buffer is then replaced with 50 mM HEPES, pH 7.4 containing 0.5% BSA, 10 mM MgCl2 and 1 mM CaCl2, and the receptor-containing membranes are further incubated with ^125I-labeled OP-1 (˜400,000 cpm/ml) in the presence or absence of excess unlabeled OP-1 or test peptide for 18 h, with slow shaking at room temperature. Finally, the membranes are washed four times with 50 mM HEPES buffer, pH 7.4 containing 5 mM MgCl2 and 1 mM CaCl2, air dried and ^125I kept for autoradiography overnight.
Initial binding experiments were carried out to examine the role of the finger 2 region (Leu109-Arg129) of OP-1 in the interaction of OP-1 with the type II receptor. Incubation of DAF4 with radioiodinated OP-1 was done in the presence (a) and absence (b) of synthetic peptide (F2-3) corresponding to the indicated finger 2 region of OP-1. In parallel, immobilized receptor was incubated with radioiodinated OP-1 in the presence of unlabeled OP-1 which served as a positive control. […] These initial results thus identify that the finger 2 region (Leu109-Arg129) of OP-1 is likely a contact region in the interaction of OP-1 with the type II receptor.

Row | binding to ECD of DAF-4 ([2]; FIG. 20 legend) | inhibition of 125I-labeled OP-1 binding to the ECD of DAF-4 [2] [%] | Molecule | behaviour in the alkaline phosphatase assay (agonist/antagonist) ([1]; Example 2, alone or with 40 ng/ml soluble OP-1) | effect on basal cell responsiveness (alkaline phosphatase activity) ([1]; Example 3, peptide alone, no OP-1) | effect on OP-1 induced cell responsiveness (agonist/antagonist behaviour) ([1]; Example 3, peptide together with OP-1) | peptide concentrations at which OP-1 induced responsiveness is potentiated ([1]; Example 3, with OP-1) [µM] | overall judgement of activity (lead peptides) ([1]; Example 3 summary, antagonistic (H-C2) and modulating (F2-3) activity) | % increase in OP-1 response relative to the absence of peptide ([1]; peptide 0.01 (unit printed ELM), FIG. 19) [%] | % increase in OP-1 response relative to the absence of peptide ([1]; peptide 0.1 (unit printed ELM), FIG. 19) [%] | % increase in OP-1 response relative to the absence of peptide ([1]; peptide 1 ELM (so in the source), FIG. 19) [%] | increase of alkaline phosphatase activity relative to soluble OP-1 alone ([1]; peptide about 0.01 μM with 40 ng/ml soluble OP-1, FIG. 9B) | effect on basal alkaline phosphatase level ([1]; peptide alone, about 0.01 μM, Example 2, FIG. 9B) | level of OP-1 response in the absence of peptide ([1]; FIG. 19, sub-maximal OP-1 (1.33 nM))
1 | binds to ECD of DAF-4 | 75 | F2-3: SEQ ID No. 19; 16 residues, finger 2 tip 11-residue loop with 5-residue C-terminal extension (CYFDDSSNVICKKYRS; listed as Homo sapiens) | weak OP-1 agonists | no significant effect | agonistic manner; also recorded: potentiating the cell responsiveness to OP-1 | 0.01 to 1 | highly active | 53 | 54 | 48 | about 20% | increase the basal alkaline phosphatase level | 
2 |  | 78 | OP-1: osteogenic protein-1, a tissue morphogenic protein of the TGF-β superfamily; mature human OP-1 is SEQ ID No. 4 (protein, listed as Homo sapiens) CKKHELYVSFRDLGWQDWIIAPEGYAAYYCEGECAFPLNSYMNATNHAIVQTLVHFINPETVPKPCCAPTQLNAISVLYFDDSSNVILKKYRNMVVRACGCH |  |  |  |  |  |  |  |  |  |  | approximately 60 % of maximum
